The results in this text go back to patent US7653490B2, “Nuclear magnetic resonance assembly of chemical entities” (Triad Liquidating Company LLC, priority 2001, dated 2010).

One assay concerns the target p38α MAP kinase (Homo sapiens, UniProt Q16539). The experiment in a line: Phosphorylation of myelin basic protein (MBP) by p38α. Format: biochemical. The protocol:
The TTM2001.101.A09 bi-ligand compound and the fragments from which it was constructed were tested as inhibitors of p38α enzymatic activity in an assay measuring phosphorylation of myelin basic protein (MBP) by p38α.

The target of assay [1] is unactivated p38α MAP kinase (Homo sapiens, UniProt Q16539). The assay can be described thus: WaterLOGSY NMR binding screen. Particulars: 10 to 30 micromolar p38α, 0.1 to 1.0 millimolar compound, 4° C. The source says: A library of 29 PBBA structure analogs was screened against unlabeled p38α MAP kinase (p38α) as follows. Samples containing 10 to 30 micromolar concentration of unactivated p38α MAP kinase and 0.1 to 1.0 millimolar concentration of one of the PBBA structure analogs were obtained. The samples were screened using WaterLOGSY with saturations times of 2 s (frequency selective excitation via a train of 232 6 ms π pulses with a GAUSS profile at an 80 Hz RF field strength) with solvent suspension using WATERGATE at 4° C. WaterLOGSY is further described in Dalvit et al. J. Biomol. NMR 21:349-59 (2001) Dalvit et al. J. Magn. Res. B112:282-288 (1996) and Dalvit et al., J. Biomol. NMR 11:437-444 (1998).
A number of PBBA related compounds were screened with WaterLOGSY to identify those that bound to p38α. Of the compounds shown in FIG. 6, two were identified by cross-saturation experiments (with 10 μM unactivated p38α, 1.5 s to 3.0 s saturation with a train of IBURP pulses) to interact with TTM2001.082.A10 as indicated by the arrows.

Assay [2] concerns the target T1, p38α (Homo sapiens, UniProt Q16539). The experiment in a line: Fluorescence polarization displacement of fluorescently tagged staurosporine. It counts as binding. (In fluorescence polarisation assays a small probe gives low polarisation when free and higher when bound to something large.)
Assay [3] deals with activated p38α protein kinase (Homo sapiens, UniProt Q16539). The assay can be described thus: 1D saturation transfer difference with selective saturation of antenna methyl of TTM2002.143.A27. Format: binding. Particulars: 2 s saturation at 3.0 ppm, 4° C. The source says: The 25 compounds from the MOTIF library described in Example IV were screened for proximal binding near the ligand-probe as follows. Samples were obtained containing 100 to 1000 micromolar concentrations of the TTM2002.143.A27 ligand-probe, 10 to 50 micromolar concentrations of activated p38α protein kinase, and one of the 25 compounds at a concentration of 100 to 1000 micromolar. Samples were screened for the presence of second ligands binding proximal to the common ligand-probe by (^1H) 1 dimensional saturation transfer difference experiments using saturations times of 2 s (frequency selective excitation via a train of 232 6 ms τ pulses with a GAUSS profile at an 80 Hz RF field strength) with solvent suspension using WATERGATE at 4° C.

The target of assay [4] is T1, p38α. The assay can be described thus: 1D 1H NMR line broadening. Format: binding. As to conditions: 50 micromolar compound, 10 μM p38α. Here is the method: The ability of TTM2001.101.A09 to bind to p38α was determined by comparing the degree of line broadening in 1D ^1H NMR spectra for the compound in the presence of p38α compared to in the absence of p38α.
Assay [5] addresses T1, p38α. The assay can be described thus: WaterLOGSY competition experiments (displacement of PBBA). It counts as binding. The source says: A peptide having the sequence […] (SEQ ID NO:1) is a known phosphorylation substrate for p38α as described, for example, in Chen et al. Biochemistry 39:2079-2087 (2000). […] This site is shown in the lower panel of FIG. 7, and is referred to as the SL (specificity ligand) site, since extending a bi-ligand library into this site off of an ATP mimic might provide additional specificity.

Broadly, the Kd is the concentration at which binding is half-saturated. The term IC50 denotes the concentration that gives 50% inhibition.

T1 sequence (Q16539 whole entry): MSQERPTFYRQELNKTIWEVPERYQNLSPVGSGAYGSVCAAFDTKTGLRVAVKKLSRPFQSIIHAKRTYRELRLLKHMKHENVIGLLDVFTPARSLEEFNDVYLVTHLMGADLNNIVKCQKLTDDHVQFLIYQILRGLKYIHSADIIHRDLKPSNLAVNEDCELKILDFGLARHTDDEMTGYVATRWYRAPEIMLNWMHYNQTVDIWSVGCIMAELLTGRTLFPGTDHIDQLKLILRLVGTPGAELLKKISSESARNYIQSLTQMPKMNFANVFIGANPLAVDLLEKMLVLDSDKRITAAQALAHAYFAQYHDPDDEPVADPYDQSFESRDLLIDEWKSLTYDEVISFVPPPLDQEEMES
p38α MAP kinase, sequence (Q16539 whole entry, the tested form may be a part): as the sequence (Q16539 whole entry) above
unactivated p38α MAP kinase, sequence (Q16539 whole entry): as above
activated p38α protein kinase, sequence (Q16539 whole entry): as above

With `CCCCc1ccc(C(=O)O)cc1` [PBBA, p-butyl benzoic acid], the “inhibition of phosphorylation of MBP protein by p38α (in words)” value against p38α MAP kinase is “inhibit phosphorylation of MBP protein by p38α”. The “binding to p38α by WaterLOGSY cross-saturation” value in assay [1] is given as “showed cross-saturation effects with p38α indicating binding to the protein”. In addition, at p38α [2], the “ability to displace fluorescently tagged staurosporine” value is recorded as “not able to displace a fluorescently tagged staurosporine”.

As for `CCCCCc1ccc(N)cc1` [PPA, p-pentyl-aniline], the “intensity change of aromatic protons on selective saturation of antenna methyl protons” value in assay [3] is reported as “showed a reduction in the intensity on selective saturation of the methyl protons”.

As to `O=C(O)c1ccc(CCCCCCSCc2cc(-n3cnc4cc(C(=O)O)ccc43)ccc2F)cc1` [TTM2001.101.A09], the equilibrium dissociation constant (Kd) on p38α MAP kinase (IC50 corrected for high ATP concentration, read-out: Kd for binding between p38α and compound) is ~300 nM. In addition, the IC50 on p38α MAP kinase (read-out: IC50, inhibition of myelin basic protein phosphorylation by p38α) is 1700 nM. In addition, the “fold tighter than either of the starting fragments” value at p38α MAP kinase (versus starting fragments PBBA and TTM2001.082.B09) is reported as “greater than 100 fold”. Further, the “line broadening in 1D 1H NMR spectrum in presence of p38α” value at p38α [4] is on record as “significant line-broadening”.

For the compound “SEQ ID NO:1: peptide IPTTPITTTYFFFKKK, known phosphorylation substrate for p38α”, the “ability to displace PBBA from p38α, WaterLOGSY competition” value with p38α [5] is recorded as “could not displace PBBA from p38α”.
